Experimental data: patent publication EP0721336B1, “BENZAZOLE COMPOUNDS FOR USE IN THERAPY” (CANCER RESEARCH CAMPAIGN TECHNOLOGY LIMITED, priority 1993, dated 1995)
Where two headings read alike, the source gives them in different places. Marks after values point to notes of the source that are not given here.

Key:
MCF-7 mammary carcinoma [1] = settings: mouse, in vivo, ip, 120 mg/kg
A431 cells = assay: In vitro growth assay; format: cell-based; settings: range of concentrations 0.1nM-10µM
Experimental: No effect was observed, for example, on the growth of A431 cells as a result of exposure to CJM 126 over a range of concentrations (0.1nM-10µM).
In carrying out the above in vitro studies, the method used for conducting the cytotoxicity assays was generally substantially as follows: • Cells were maintained in a continuous logarithmic culture in Dulbecco's medium supplemented with 10% fetal calf serum and penicillin (100 IU/ml) and streptomycin (100 µg/ml). The cells were mildly trypsinized for passage and for use in assays. On day zero, 100µl of trypsinized tumour cells (1 x 10^4/ml) were plated in the wells of 96-well flat-bottom microtiter plates. […] On day two 50µl of the highest drug concentration was added to the wells of column 12 and from there serially diluted 3-fold to column 1 by serial transfer of 50µl using an 8-channel micropipette. The final volume of column 1 was adjusted to 100µl. No additions were made to the wells of rows A and B, which served as controls. The plates were further incubated for 5 days at 37°C and 5% CO2 in air. […] The plates were kept at 4°C overnight before reading on an inverted microscope equipped with an automated scanning stage. Fluorescence intensity was measured in arbitrary units by a photomultiplier. […]

A2780 ovarian carcinoma = assay: In vitro cytotoxicity assay; format: cell-based, human
Text: (§1) This is illustrated in Tables 1 and 2 at the end of the present description which show in vitro test results obtained in various sets of experiments for the cytotoxic activity of this compound CJM 126 against a range of human tumour cell lines, expressed in terms of IC50 values (concentration or dosage required to reduce cell growth or proliferation by 50%) calculated from dose-effect curves plotted for cultures of the cells in question.
(§2) In carrying out the above in vitro studies, the method used for conducting the cytotoxicity assays was generally substantially as follows: • Cells were maintained in a continuous logarithmic culture in Dulbecco's medium supplemented with 10% fetal calf serum and penicillin (100 IU/ml) and streptomycin (100 µg/ml). The cells were mildly trypsinized for passage and for use in assays. On day zero, 100µl of trypsinized tumour cells (1 x 10^4/ml) were plated in the wells of 96-well flat-bottom microtiter plates. […] On day two 50µl of the highest drug concentration was added to the wells of column 12 and from there serially diluted 3-fold to column 1 by serial transfer of 50µl using an 8-channel micropipette. The final volume of column 1 was adjusted to 100µl. No additions were made to the wells of rows A and B, which served as controls. The plates were further incubated for 5 days at 37°C and 5% CO2 in air. Each compound was tested in duplicate. • On day 7 the test was terminated by the addition of 100µl saline containing 0.002% w/v propidium iodide (Sigma), 0.3% drawing ink (Staedtler "Marsmatic 745" - Trade Mark) and 0.5% Triton X-100. The plates were kept at 4°C overnight before reading on an inverted microscope equipped with an automated scanning stage. Fluorescence intensity was measured in arbitrary units by a photomultiplier. An HP-87 computer controlled the movement of the stage and also collected and processed the data from the multiplier. • For each compound tested a dose-response curve was obtained and the IC50 value (the drug concentration at 50% inhibition of cell growth) was calculated.

[2] = tested on: MDA 468 mammary (ER-/EGFR+); assay: In vitro cytotoxicity assay; format: cell-based, human; settings: Homo sapiens
Text: as §1, §2

EGFR tyrosine kinase = EGFR tyrosine kinase (Homo sapiens, UniProt P00533); assay: Western blot analyses with anti-phosphotyrosine primary antibody; format: cell-based; settings: unstimulated or EGF stimulated
MCF-7 mammary carcinoma [3] = assay: In vivo activity against MCF-7 tumour implanted s.c.; settings: i.p., 120 mg/kg/day, qd 6, 13, 20
[4] = tested on: human MDA 468 xenograft tumours; assay: In vivo activity against MDA 468 xenograft; design: species or system nude mice
Experimental: The effect of CJM 126 (0.1, 0.01 and 0.001mg/kg) has also been investigated in nude mice bearing human MDA 468 xenograft tumours.

MCF 7-ADR mammary = assay: In vitro cytotoxicity and growth stimulation assay; format: cell-based, human
Text: as §1, §2

[5] = tested on: P388R8/22 (multidrug resistant) cells; assay: In vitro cytotoxicity assay; format: cell-based
Experimental: as §2, with “An HP-87 computer controlled the movement of the stage and also collected and processed the data from the multiplier. • For each compound tested a dose-response curve was obtained and the IC50 value (the drug concentration at 50% inhibition of cell growth) was calculated.” left out

P388 cells = assay: In vitro cytotoxicity assay; format: cell-based; settings: Mus musculus
Experimental: as §2, with “An HP-87 computer controlled the movement of the stage and also collected and processed the data from the multiplier. • For each compound tested a dose-response curve was obtained and the IC50 value (the drug concentration at 50% inhibition of cell growth) was calculated.” left out

[6] = tested on: MCF-7 mammary carcinoma cells; assay: In vitro cytotoxicity assay (cell growth, propidium iodide fluorescence); format: cell-based, human; settings: for IC50: Homo sapiens; for effect on cell growth: later series of experiments
Text: as §1, §2

[7] = tested on: NCI (National Cancer Institute, U.S.A.) panel of human tumour cell lines; assay: NCI tumour cell line panel test; format: cell-based; settings: panel contains no breast cancer cell lines
EGFR = EGFR (Homo sapiens, UniProt P00533); assay: Displacement of iodinated EGF from EGFR; format: binding; settings: 1µM, 10µM and 100µM
[8] = tested on: BO (T61) human mammary carcinomas; assay: In vivo activity against implanted BO tumour; design: species or system NMRI-nu/nu female mice; settings: i.p., qd 27,34,41

Sequence of EGFR tyrosine kinase (P00533 25-1210): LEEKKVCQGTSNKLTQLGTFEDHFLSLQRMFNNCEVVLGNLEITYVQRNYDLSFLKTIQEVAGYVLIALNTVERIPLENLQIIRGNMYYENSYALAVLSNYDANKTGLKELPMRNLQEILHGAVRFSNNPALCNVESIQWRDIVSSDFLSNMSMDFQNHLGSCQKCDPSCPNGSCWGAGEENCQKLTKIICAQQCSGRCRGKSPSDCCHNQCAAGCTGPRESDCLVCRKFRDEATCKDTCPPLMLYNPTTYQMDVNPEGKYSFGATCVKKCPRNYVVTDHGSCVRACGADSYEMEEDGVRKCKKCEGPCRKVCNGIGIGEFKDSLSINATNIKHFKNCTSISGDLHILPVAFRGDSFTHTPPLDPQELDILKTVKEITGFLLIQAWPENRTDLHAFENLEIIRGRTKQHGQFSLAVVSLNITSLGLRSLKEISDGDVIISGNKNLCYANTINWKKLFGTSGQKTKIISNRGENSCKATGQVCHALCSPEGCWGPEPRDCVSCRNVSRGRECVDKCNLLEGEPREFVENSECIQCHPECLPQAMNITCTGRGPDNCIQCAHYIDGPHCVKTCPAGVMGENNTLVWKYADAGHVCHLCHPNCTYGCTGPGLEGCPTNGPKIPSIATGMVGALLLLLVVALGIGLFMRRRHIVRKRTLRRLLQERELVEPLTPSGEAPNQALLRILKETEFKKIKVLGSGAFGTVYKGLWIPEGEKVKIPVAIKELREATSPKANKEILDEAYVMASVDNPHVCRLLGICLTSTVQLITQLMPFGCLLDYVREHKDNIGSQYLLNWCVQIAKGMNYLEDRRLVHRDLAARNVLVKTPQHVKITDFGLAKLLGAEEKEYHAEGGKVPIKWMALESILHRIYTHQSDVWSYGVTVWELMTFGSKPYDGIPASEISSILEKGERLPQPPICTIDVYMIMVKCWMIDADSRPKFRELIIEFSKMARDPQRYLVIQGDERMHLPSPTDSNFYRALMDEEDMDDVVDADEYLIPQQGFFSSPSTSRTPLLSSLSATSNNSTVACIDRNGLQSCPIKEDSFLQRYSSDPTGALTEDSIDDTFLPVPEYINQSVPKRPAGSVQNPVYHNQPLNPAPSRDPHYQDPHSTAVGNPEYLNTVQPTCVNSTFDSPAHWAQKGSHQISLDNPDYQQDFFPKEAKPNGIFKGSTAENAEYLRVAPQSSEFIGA
Sequence of EGFR (P00533 25-1210): as above

With Nc1ccc(-c2nc3ccccc3s2)cc1 [CJM 126, 2-(4-aminophenyl)benzothiazole] the signs of toxicity (MCF-7 mammary carcinoma [1]) was “no signs of severe toxicity”, the effect on growth (A431 cells) was “No effect” and the IC50 (A2780 ovarian carcinoma; 2nd series of experiments) was 43000 nM. For the same compound, the IC50 (A2780 ovarian carcinoma; Homo sapiens, A2780, 1st series of experiments) was 8.83 µg/mL, the IC50 (A2780 ovarian carcinoma; Homo sapiens, A2780, 2nd series of experiments) was 39000 nM and the IC50 ([2]; MDA 468, read-out: estimated IC50) was ~1.6 nM. The IC50 ([2]; column A, read-out: MDA 468 A IC50 at sub-micromolar concentrations) was 1.6 nM, the IC50 ([2]; 2nd series of experiments, read-out: IC50) was 1.6 nM and the “inhibition of EGFR tyrosine kinase activity” value (EGFR tyrosine kinase) was “no apparent inhibition”. The “Relative tumour volume (T/C%)” value (MCF-7 mammary carcinoma [3]; d9) was 84%, the “Relative tumour volume (T/C%)” value (MCF-7 mammary carcinoma [3]; d13) was 47* % and the “Relative tumour volume (T/C%)” value (MCF-7 mammary carcinoma [3]; d20) was 38* %. For the same compound, the “Relative tumour volume (T/C%)” value (MCF-7 mammary carcinoma [3]; d27) was 27* %, the “Relative tumour volume (T/C%)” value (MCF-7 mammary carcinoma [3]; d35) was 27* % and the “Relative tumour volume (T/C%)” value (MCF-7 mammary carcinoma [3]; d43) was 43* %. For the same compound, the “BWC (%)” value (MCF-7 mammary carcinoma [3]; relative to saline treated animals) was -13%, the “Tumour weight (g)” value ([4]; 0.1mg/kg daily) was “.30 + .07 g” and the “Cross section tumour area (mm)” value ([4]; 0.1mg/kg daily, Day 5) was 97.75 ± 9.55 mm. The “Cross section tumour area (mm)” value ([4]; 0.1mg/kg daily, Day 12) was 71.07 ± 7.2 mm, the “Cross section tumour area (mm)” value ([4]; 0.1mg/kg daily, Day 15) was 82.17 + 1058 mm and the “Cross section tumour area (mm)” value ([4]; 0.1mg/kg daily, Day 19) was 88.84 ± 3.69 mm. For the same compound, the “Cross section tumour area (mm)” value ([4]; 0.1mg/kg daily, Day 22) was 105.66 ± 5.49 mm, the “Cross section tumour area (mm)” value ([4]; 0.1mg/kg daily, Day 26) was 124.55 ± 7.90 mm and the “Cross section tumour area (mm)” value ([4]; 0.1mg/kg daily, Day 29) was 182.15 ± 14.79 mm. The “Cross section tumour area (mm)” value ([4]; 0.1mg/kg daily, Day 32) was 196.66 ± 18.65 mm, the “Tumour weight (g)” value ([4]; .001mg/kg daily) was “.19 + .08 g” and the “Cross section tumour area (mm)” value ([4]; .001mg/kg daily, Day 5) was 85.54 ± 19.44 mm. The “Cross section tumour area (mm)” value ([4]; .001mg/kg daily, Day 12) was 52.93 ± 2.65 mm, the “Cross section tumour area (mm)” value ([4]; .001mg/kg daily, Day 15) was 67.81 ± 12.92 mm and the “Cross section tumour area (mm)” value ([4]; .001mg/kg daily, Day 19) was 64.8 ± 17.35 mm. The “Cross section tumour area (mm)” value ([4]; .001mg/kg daily, Day 22) was 75.12 ± 20.05 mm, the “Cross section tumour area (mm)” value ([4]; .001mg/kg daily, Day 26) was 81.53 ± 26.16 mm and the “Cross section tumour area (mm)” value ([4]; .001mg/kg daily, Day 29) was 114.65 + 3457 mm. The “Cross section tumour area (mm)” value ([4]; .001mg/kg daily, Day 32) was 129.06 ± 32.08 mm, the “Tumour weight (g)” value ([4]; .01mg/kg daily) was “.29 + .15 g” and the “Cross section tumour area (mm)” value ([4]; .01mg/kg daily, Day 5) was 120.78 ± 5.83 mm. For the same compound, the “Cross section tumour area (mm)” value ([4]; .01mg/kg daily, Day 12) was 71.65 ± 11.67 mm, the “Cross section tumour area (mm)” value ([4]; .01mg/kg daily, Day 15) was 78.21 ± 6.69 mm and the “Cross section tumour area (mm)” value ([4]; .01mg/kg daily, Day 19) was 98.03 ± 33.51 mm. For the same compound, the “Cross section tumour area (mm)” value ([4]; .01mg/kg daily, Day 22) was 117.02 ± 42.1 mm, the “Cross section tumour area (mm)” value ([4]; .01mg/kg daily, Day 26) was 131.58 ± 23.41 mm and the “Cross section tumour area (mm)” value ([4]; .01mg/kg daily, Day 29) was 164.90 ± 37.18 mm. For the same compound, the “Cross section tumour area (mm)” value ([4]; .01mg/kg daily, Day 32) was 191.68 ± 45.65 mm, the stimulation (MCF 7-ADR mammary; 2nd series of experiments, concentration giving stimulation) was “stimulation > 1µM” and the “effect on cell growth” value (MCF 7-ADR mammary; 3 and 10µM, seeding density 2.5 x 10^2 cells per well) was “induced proliferation”. The IC50 [5] was 52000 nM, the IC50 (P388 cells) was 27000 nM and the IC50 ([6]; MCF7, 1st series of experiments, initial decrease in cell growth, read-out: IC50) was ~0.002 µg/mL. It also gave an IC50 ([6]; MCF7, MCF 7-wt, phase 1, after drug removal, read-out: observed IC50 after drug removal) of 2.18 nM, an IC50 ([6]; MCF7, MCF 7-wt, read-out: estimated IC50) of ~2.9 nM and an IC50 ([6]; MCF7, first series of experiments, second decrease at even greater doses, read-out: IC50 of second decrease (biphasic dose response)) of ~2 µg/mL. For the same compound, the IC50 ([6]; MCF-wt, column A, read-out: MCF-wt A IC50 at sub-micromolar concentrations) was 3 nM, the inhibition of growth ([6]; MCF 7-wt, 1% FCS, presence of EGF, all concentrations 1nM-10µM) was “greater than 85%” and the “times more sensitive than other human cell lines tested” value ([6]; first series of experiments, Table 1) was “about 3000 times”. The “estimated IC50” value ([6]; in the presence of 1% FCS) was “picomolar range”, the “proliferation of colonies (2nd phase)” value ([6]; in the presence of 1% FCS, 3, 10, 30µM) was “no proliferation of colonies” and the “effect on cell growth” value ([6]; 30nM and 100nM) was “maximum growth inhibition”. For the same compound, the “effect on cell growth” value ([6]; exposure to 1µM, 3µM and 10µM) was “loss of growth arrest”, the toxicity in panel [7] was “essentially non-toxic” and the “displacement of iodinated EGF from EGFR” value (EGFR) was “no ability to displace”. The BWC ([8]; 1 mg/kg/day) was -5, the “Relative tumour volume (T/C%)” value ([8]; 1 mg/kg/day, d33) was 173% and the “Relative tumour volume (T/C%)” value ([8]; 1 mg/kg/day, d41) was 72%. The “Relative tumour volume (T/C%)” value ([8]; 1 mg/kg/day, d47) was 25* %, the “Relative tumour volume (T/C%)” value ([8]; 1 mg/kg/day, d55) was 67% and the “Relative tumour volume (T/C%)” value ([8]; 1 mg/kg/day, d61) was 41* %. For the same compound, the BWC ([8]; 10 mg/kg/day) was -4, the “Relative tumour volume (T/C%)” value ([8]; 10 mg/kg/day, d33) was 107% and the “Relative tumour volume (T/C%)” value ([8]; 10 mg/kg/day, d41) was 74%. For the same compound, the “Relative tumour volume (T/C%)” value ([8]; 10 mg/kg/day, d47) was 55%, the “Relative tumour volume (T/C%)” value ([8]; 10 mg/kg/day, d55) was 70% and the “Relative tumour volume (T/C%)” value ([8]; 10 mg/kg/day, d61) was 52%. The BWC ([8]; 100 mg/kg/day) was -7, the “Relative tumour volume (T/C%)” value ([8]; 100 mg/kg/day, d33) was 137% and the “Relative tumour volume (T/C%)” value ([8]; 100 mg/kg/day, d41) was 77%. The “Relative tumour volume (T/C%)” value ([8]; 100 mg/kg/day, d47) was 87%, the “Relative tumour volume (T/C%)” value ([8]; 100 mg/kg/day, d55) was 68% and the “Relative tumour volume (T/C%)” value ([8]; 100 mg/kg/day, d61) was 52%.
